The text below walks through data of publication PMC9532399, “The lysosomal transporter TAPL has a dual role as peptide translocator and phosphatidylserine floppase” (Nature Communications, 2022).

The target of the assay is T1, mouse TAPL ΔTMD0 (Mus musculus, UniProt Q9JJ59).
T1 construct: thrombin cleavage site (C); eGFP (C); 10XHis (C); made in house; host or cells: Trichoplusia ni High Five (Hi5) insect cells, baculovirus (pVL1393)
T1 sequence (Q9JJ59 143-762): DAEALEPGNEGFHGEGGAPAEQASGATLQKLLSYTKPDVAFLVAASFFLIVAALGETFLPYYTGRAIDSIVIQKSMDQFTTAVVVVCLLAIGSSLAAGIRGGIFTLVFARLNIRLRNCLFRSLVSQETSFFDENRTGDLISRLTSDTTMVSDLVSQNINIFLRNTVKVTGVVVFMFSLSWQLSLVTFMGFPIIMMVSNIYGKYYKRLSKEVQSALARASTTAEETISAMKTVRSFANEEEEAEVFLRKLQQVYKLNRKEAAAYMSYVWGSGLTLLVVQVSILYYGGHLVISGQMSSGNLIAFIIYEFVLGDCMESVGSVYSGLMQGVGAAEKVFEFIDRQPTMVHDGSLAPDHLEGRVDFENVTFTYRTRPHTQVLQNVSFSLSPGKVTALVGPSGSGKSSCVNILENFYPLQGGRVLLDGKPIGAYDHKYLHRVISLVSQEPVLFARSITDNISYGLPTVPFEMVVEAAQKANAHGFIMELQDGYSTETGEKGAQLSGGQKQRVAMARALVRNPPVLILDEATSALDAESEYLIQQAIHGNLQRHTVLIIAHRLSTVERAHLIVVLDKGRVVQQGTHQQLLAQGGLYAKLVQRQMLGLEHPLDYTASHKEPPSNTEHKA
Put plainly: Dithionite-based flip-flop (floppase) assay of NBD*-labeled lipids, ΔTMD0 proteoliposomes. In kind it is biochemical. The following applies: for fluorescence remaining after dithionite: 10 mM dithionite. As for the experimental part:
All lipids used in reconstitution were purchased from Avanti Polar Lipids, Inc. (purity > 99%). The in vitro flip–flop assay was performed using NBD* dye-labeled proteoliposomes as described previously. Briefly, E. coli polar lipids and egg PC were mixed in a 1:1 molar ratio, and 0.5% (mol/mol) NBD*-lipid was added. The lipid mixture was then dried under nitrogen gas. The NBD*-lipids used were 18:1-06:0 NBD*-PS (1-oleoyl-2-{6-[(7-nitro-2-1,3-benzoxadiazol-4-yl)amino]hexanoyl}-sn-glycero-3-phosphoserine), 18:1-06:0 NBD*-PC (1-oleoyl-2-{6-[(7-nitro-2-1,3-benzoxadiazol-4-yl)amino]hexanoyl}-sn-glycero-3-phosphocholine), 18:1-06:0 NBD*-PG (1-oleoyl-2-{6-[(7-nitro-2-1,3-benzoxadiazol-4-yl)amino]hexanoyl}-sn-glycero-3-[phospho-rac-(1-glycerol)]), 18:1-06:0 NBD*-PE (1-oleoyl-2-{6-[(7-nitro-2-1,3-benzoxadiazol-4-yl)amino]hexanoyl}-sn-glycero-3-phosphoethanolamine), and 25-NBD*-Cholesterol (25-[N-[(7-nitro-2-1,3-benzoxadiazol-4-yl)methyl]amino]−27-norcholesterol). Thin lipid films were solubilized in 20 mM HEPES–NaOH pH 8.0, 200 mM NaCl and 5% (v/v) glycerol, incubated at RT for 30 min and subjected to 5 freeze–thaw cycles. After extrusion with a Mini-Extruder at 65 °C, final lipid concentrations were determined by phosphorus assays. Briefly, 10 μL of extruded lipid was added to 10 μL of 2% (w/v) ammonium molybdate and 300 μL of concentrated perchloric acid. The mixture was heated at 250 °C for 30 min, then cooled to RT and mixed with 1.5 mL of 0.4% (w/v) ammonium molybdate and 250 μL of 9% (w/v) L-ascorbic acid. It was again heated at 100 °C for 6 min and cooled to RT. Lipid concentrations were calculated from the absorbance at 820 nm using a standard curve prepared with NaH2PO4 solution. After accurately determining the lipid concentration, DM-purified protein and 5 mM lipid suspension (solubilized in 5 mM DM) were mixed 1:25 (w/w). After incubation at 4 °C for 1.5 h, DM detergent was removed with 75 mg Bio-beads SM-2 by periodic gentle shaking for 1 h at 4 °C (Supplementary Fig. 5a). The beads were replaced once, followed by an additional incubation at 4 °C for 2 h to completely remove detergent. The resulting proteoliposomes were collected by ultracentrifugation at 200,000×g for 1.5 h at 4 °C.
To measure the flip–flop activity, 10 μL of 2 mM NBD*-labeled proteoliposomes were added to 100 μL of reaction buffer (20 mM HEPES–NaOH pH 8.0, 200 mM NaCl, 5 mM ATP and 5% (v/v) glycerol) in the presence of 2 mM MgCl2 (or NaCl), and incubated at 37 °C for 1 h. The mixture was transferred to a 96-well plate and time-dependent fluorescence (λex/λem = 460/538 nm) was recorded every 30 s for 26 min using a fluorescence spectrophotometer (Gemini XPS). After the baseline fluorescence had stabilized, 10 mM sodium dithionite was added to quench the fluorescence of NBD*-lipid present in the outer leaflets of the liposomes. The initial rapid drop and subsequent slow decline in fluorescence intensity were monitored. When a new steady state was established, 1% (v/v) Triton X-100 was added to completely disrupt the liposomes. The net percentage of NBD*-lipid translocated across the lipid bilayer was calculated from the following equation[72]: the percentage of protected NBD*-lipid in the inner leaflet = [(FD−F0)/(FT−F0)]×100, and that of accessible NBD*-lipid in the outer leaflet = [(FT−FD)/(FT−F0)]×100, where FT is the total fluorescence of the sample before the addition of dithionite, FD is the fluorescence of the sample after quenching with dithionite, and F0 is any residual fluorescence of the sample after solubilization with Triton X-100. Fluorescence values (FT, FD, F0) were calculated as the averages of 5 points on the respective plateau lines. The ΔTMD0-mediated lipid floppase activity was determined by subtracting the percentage of NBD*-lipid fluorescence measured in the presence of Na^+/ATP from that measured in the presence of Mg^2+/ATP.

For `CCCCCCCC/C=C\CCCCCCCC(=O)OC[C@H](COP(=O)(O)OC[C@H](N)C(=O)O)OC(=O)CCCCCNc1ccc([N+](=O)[O-])c2nonc12` [NBD*-PS, 1-oleoyl-2-{6-[(7-nitro-2-1,3-benzoxadiazol-4-yl)amino]hexanoyl}-sn-glycero-3-phosphoserine], under “Mg2+/ATP minus Na+/ATP”, the “difference of inner leaflet fluorescence with and without hydrolysable ATP” value is on record as ~ 4.5%. For the same compound, the “NBD*-PS fluorescence intensity (net percentage transported outer to inner leaflet)” value (Mg2+/ATP minus Na+/ATP, 5 mM ATP, 37 °C 1 h, no peptide, no POPS, mean n=9) was 4.53%. The “NBD*-PS fluorescence intensity (net percentage transported)” value reads like this: (Mg2+/ATP minus Na+/ATP, with 9-mer peptide, mean n=5) 2.081%; (Mg2+/ATP minus Na+/ATP, with 10% (mol/mol) POPS, mean n=5) 2.6371%; (no peptide, no POPS, replicate I) 5.0115%; (no peptide, no POPS, replicate II) 5.082%; (no peptide, no POPS, replicate III) 5.234%; (no peptide, no POPS, replicate IV) 3.911%. Further, the “NBD*-PS fluorescence intensity (net percentage transported)” value is 4.577% (no peptide, no POPS, replicate IX); 3.922% (no peptide, no POPS, replicate V); 4.247% (no peptide, no POPS, replicate VI); 4.366% (no peptide, no POPS, replicate VII); 4.416% (no peptide, no POPS, replicate VIII); 2.499% (with 9-mer peptide, replicate I). Moreover, the “NBD*-PS fluorescence intensity (net percentage transported)” value by setting is: (with 9-mer peptide, replicate II) 2.553%; (with 9-mer peptide, replicate III) 1.795%; (with 9-mer peptide, replicate IV) 1.566%; (with 9-mer peptide, replicate V) 1.9894%; (with 10% (mol/mol) POPS, replicate I) 2.817%; (with 10% (mol/mol) POPS, replicate II) 2.678%. In addition, the “NBD*-PS fluorescence intensity (net percentage transported)” value came to 2.164% (with 10% (mol/mol) POPS, replicate III); 2.878% (with 10% (mol/mol) POPS, replicate IV); 2.648% (with 10% (mol/mol) POPS, replicate V). For the same compound, the “fluorescence remaining after dithionite” value (Mg2+/ATP, % of original value) is on record as ~ 36.2% and the “fluorescence remaining after dithionite” value (Na+/ATP, % of original fluorescence) was ~ 31.7%. Also, for the setting “NBD*-labeled lipid, PE, PG, PC and cholesterol data not shown”, the “ATP-dependent lipid transport by ΔTMD0” value was “high”. Besides, the “true active floppase activity of the transporter” value (ΔTMD0 minus E664Q) is ~ 2.6%.

In the case of “RRYQNSTC^5-IAFL [9-mer, 5-IAF-labeled peptide of 9 residues (RRYQNSTC^5-IAFL)]”, where the note is “10% (mol/mol) unlabeled POPS, or presence of the 9-mer peptide”, the “effect on translocation of NBD*-PS” value is recorded as “inhibited”.
